Laboratory results published in ChEMBL document CHEMBL1201862, “PubChem BioAssay data set” (2004).
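Five concentrations, 48 hours, 96-well plates. GI50 marks 50% less growth.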 Activity calls are given as the source filed them. Rule as the data show it: active = GI50 up to about 1.1 µM and inactive = higher.

Key:
Assay in all cases: inhibition of tumour cell growth, NCI panel, 48 h
786-0 = system: 786-0
A498 = system: A498
A549 = system: A549
ACHN = system: ACHN
BT-549 = system: BT-549
CAKI-1 = system: CAKI-1
CCRF-CEM = system: CCRF-CEM
COLO 205 = system: COLO 205
DU-145 = system: DU-145
HCC 2998 = system: HCC 2998
HCT-116 = system: HCT-116
HCT-15 = system: HCT-15
HL-60 = system: HL-60
HOP-62 = system: HOP-62
HT-29 = system: HT-29
Hs-578T = system: Hs-578T
IGROV-1 = system: IGROV-1
K562 = system: K562
KM12 = system: KM12
M14 = system: M14
MCF7 = system: MCF7
MDA-MB-231 = system: MDA-MB-231
MDA-MB-435 = system: MDA-MB-435
MDA-N = system: MDA-N
MOLT-4 = system: MOLT-4
Malme-3M = system: Malme-3M
NCI-H226 = system: NCI-H226
NCI-H23 = system: NCI-H23
NCI-H460 = system: NCI-H460
NCI-H522 = system: NCI-H522
NCI/ADR-RES = system: NCI/ADR-RES
OVCAR-3 = system: OVCAR-3
OVCAR-5 = system: OVCAR-5
OVCAR-8 = system: OVCAR-8
PC-3 = system: PC-3
SF-268 = system: SF-268
SF-295 = system: SF-295
SF-539 = system: SF-539
SK-MEL-28 = system: SK-MEL-28
SK-MEL-2 = system: SK-MEL-2
SK-MEL-5 = system: SK-MEL-5
SK-OV-3 = system: SK-OV-3
SN12C = system: SN12C
SNB-19 = system: SNB-19
SNB-75 = system: SNB-75
SR = system: SR
SW-620 = system: SW-620
T47D = system: T47D
TK-10 = system: TK-10
U-251 = system: U-251
UACC-257 = system: UACC-257
UACC-62 = system: UACC-62
UO-31 = system: UO-31
EKVX = system: EKVX
HOP-92 = system: HOP-92
LOX IMVI = system: LOX IMVI
OVCAR-4 = system: OVCAR-4
RPMI-8226 = system: RPMI-8226
RXF 393 = system: RXF 393

Measured: GI50

O=C(CCCn1ccnc1[N+](=O)[O-])NCCn1ccnc1
inactive: 786-0 > 100 µM | A498 > 100 µM | A549 > 100 µM | ACHN > 100 µM | BT-549 > 100 µM | CAKI-1 > 100 µM | CCRF-CEM > 100 µM | COLO 205 67 µM | DU-145 > 100 µM | HCC 2998 > 100 µM | HCT-116 > 100 µM | HL-60 > 100 µM | HOP-62 > 100 µM | HT-29 > 100 µM | Hs-578T > 100 µM | IGROV-1 > 100 µM | K562 > 100 µM | KM12 > 100 µM | M14 > 100 µM | MCF7 > 100 µM | MDA-MB-231 > 100 µM | MDA-MB-435 > 100 µM | MDA-N > 10 µM | MOLT-4 > 100 µM | Malme-3M > 100 µM | NCI-H226 > 100 µM | NCI-H23 > 100 µM | NCI-H460 > 100 µM | NCI-H522 > 100 µM | NCI/ADR-RES > 100 µM | OVCAR-3 > 100 µM | OVCAR-5 > 100 µM | OVCAR-8 > 100 µM | PC-3 > 100 µM | SF-268 > 100 µM | SF-295 > 100 µM | SF-539 > 100 µM | SK-MEL-28 > 100 µM | SK-MEL-2 > 100 µM | SK-MEL-5 > 100 µM | SK-OV-3 > 100 µM | SN12C > 100 µM | SNB-19 > 100 µM | SNB-75 > 100 µM | SR > 100 µM | SW-620 > 100 µM | T47D > 100 µM | TK-10 > 100 µM | U-251 > 100 µM | UACC-257 > 100 µM | UACC-62 > 100 µM | UO-31 > 100 µM
> 100 µM: HCT-15

N=C(CC(=O)Nc1ccccn1)c1ccccc1
inactive: 786-0 > 100 µM | A498 > 100 µM | A549 > 100 µM | ACHN > 100 µM | BT-549 > 100 µM | CAKI-1 > 100 µM | CCRF-CEM > 100 µM | COLO 205 > 100 µM | DU-145 > 100 µM | EKVX > 100 µM | HCT-116 > 100 µM | HL-60 > 100 µM | HOP-62 > 100 µM | HOP-92 > 100 µM | HT-29 > 100 µM | Hs-578T > 100 µM | IGROV-1 > 100 µM | K562 > 100 µM | KM12 > 100 µM | LOX IMVI > 100 µM | M14 > 100 µM | MCF7 > 100 µM | MDA-MB-231 > 100 µM | MDA-MB-435 > 100 µM | MDA-N > 100 µM | MOLT-4 > 100 µM | Malme-3M > 100 µM | NCI-H226 > 100 µM | NCI-H23 > 100 µM | NCI-H460 > 100 µM | NCI-H522 > 100 µM | NCI/ADR-RES > 100 µM | OVCAR-3 > 100 µM | OVCAR-4 > 100 µM | OVCAR-5 > 100 µM | OVCAR-8 > 100 µM | PC-3 > 100 µM | RPMI-8226 > 100 µM | RXF 393 > 100 µM | SF-268 > 100 µM | SF-295 > 100 µM | SF-539 > 100 µM | SK-MEL-28 > 100 µM | SK-MEL-2 > 100 µM | SK-MEL-5 > 100 µM | SK-OV-3 > 100 µM | SN12C > 100 µM | SNB-19 > 100 µM | SNB-75 > 100 µM | SR > 100 µM | SW-620 > 100 µM | T47D > 100 µM | TK-10 > 100 µM | U-251 > 100 µM | UACC-257 > 100 µM | UACC-62 > 100 µM | UO-31 > 100 µM
> 100 µM: HCT-15

CNC(=O)C1(N)c2ccccc2C=Cc2ccccc21
> 100 µM: HCT-15
inactive: 786-0 > 100 µM | A498 > 100 µM | A549 > 100 µM | ACHN > 100 µM | BT-549 > 100 µM | CAKI-1 > 100 µM | CCRF-CEM > 100 µM | COLO 205 > 100 µM | DU-145 > 100 µM | EKVX > 100 µM | HCT-116 > 100 µM | HL-60 > 100 µM | HOP-62 > 100 µM | HOP-92 > 100 µM | HT-29 > 100 µM | Hs-578T > 100 µM | IGROV-1 > 100 µM | K562 > 100 µM | KM12 > 100 µM | LOX IMVI > 100 µM | M14 > 100 µM | MCF7 > 100 µM | MDA-MB-231 > 100 µM | MDA-MB-435 > 100 µM | MDA-N > 100 µM | MOLT-4 > 100 µM | Malme-3M > 100 µM | NCI-H226 > 100 µM | NCI-H23 > 100 µM | NCI-H522 > 100 µM | NCI/ADR-RES > 100 µM | OVCAR-3 > 100 µM | OVCAR-4 > 100 µM | OVCAR-5 > 100 µM | OVCAR-8 > 100 µM | PC-3 > 100 µM | RPMI-8226 > 100 µM | SF-268 > 100 µM | SF-295 > 100 µM | SF-539 > 100 µM | SK-MEL-28 > 100 µM | SK-MEL-2 > 100 µM | SK-MEL-5 > 100 µM | SK-OV-3 > 100 µM | SN12C > 100 µM | SNB-19 > 100 µM | SR > 100 µM | SW-620 > 100 µM | T47D > 100 µM | TK-10 > 100 µM | U-251 > 100 µM | UACC-62 > 100 µM | UO-31 > 100 µM

CC(NC(=N)N)C(=O)O (configuration not stated)
inactive: 786-0 > 100 µM | A498 > 100 µM | A549 > 100 µM | ACHN > 100 µM | BT-549 > 100 µM | CAKI-1 > 100 µM | CCRF-CEM > 100 µM | COLO 205 > 100 µM | DU-145 > 100 µM | EKVX > 100 µM | HCC 2998 > 100 µM | HCT-116 > 100 µM | HOP-62 > 100 µM | HT-29 > 100 µM | Hs-578T > 100 µM | IGROV-1 > 100 µM | K562 > 100 µM | KM12 > 100 µM | LOX IMVI > 100 µM | M14 > 100 µM | MCF7 > 100 µM | MDA-MB-231 > 100 µM | MDA-MB-435 > 100 µM | MDA-N > 100 µM | MOLT-4 > 100 µM | Malme-3M > 100 µM | NCI-H226 > 100 µM | NCI-H23 > 100 µM | NCI-H522 > 100 µM | NCI/ADR-RES > 100 µM | OVCAR-3 > 100 µM | OVCAR-4 > 100 µM | OVCAR-5 > 100 µM | OVCAR-8 > 100 µM | PC-3 > 100 µM | RPMI-8226 > 100 µM | RXF 393 > 100 µM | SF-268 > 100 µM | SF-295 > 100 µM | SK-MEL-28 > 100 µM | SK-MEL-2 > 100 µM | SK-MEL-5 > 100 µM | SK-OV-3 > 100 µM | SN12C > 100 µM | SNB-19 > 100 µM | SNB-75 > 100 µM | SR > 100 µM | SW-620 > 100 µM | T47D > 100 µM | TK-10 > 100 µM | U-251 > 100 µM | UACC-257 > 100 µM | UACC-62 > 100 µM | UO-31 > 100 µM
> 100 µM: HCT-15

O=CC(O)C(O)C(O)C1CNC(=S)O1 (configuration not stated)
inactive: 786-0 > 100 µM | A498 > 100 µM | A549 > 100 µM | ACHN > 100 µM | BT-549 > 100 µM | CAKI-1 > 100 µM | CCRF-CEM > 100 µM | COLO 205 > 100 µM | DU-145 > 100 µM | EKVX > 100 µM | HCT-116 > 100 µM | HL-60 > 100 µM | HOP-62 > 100 µM | HOP-92 > 100 µM | HT-29 > 100 µM | Hs-578T > 100 µM | IGROV-1 > 100 µM | K562 > 100 µM | KM12 > 100 µM | LOX IMVI > 100 µM | M14 > 100 µM | MCF7 > 100 µM | MDA-MB-231 > 100 µM | MDA-MB-435 > 100 µM | MDA-N > 100 µM | MOLT-4 > 100 µM | Malme-3M > 100 µM | NCI-H226 > 100 µM | NCI-H23 > 100 µM | NCI-H460 > 100 µM | NCI-H522 > 100 µM | NCI/ADR-RES > 100 µM | OVCAR-3 > 100 µM | OVCAR-4 > 100 µM | OVCAR-5 > 100 µM | OVCAR-8 > 100 µM | PC-3 > 100 µM | RPMI-8226 > 100 µM | RXF 393 > 100 µM | SF-268 > 100 µM | SF-295 > 100 µM | SF-539 > 100 µM | SK-MEL-28 > 100 µM | SK-MEL-2 > 100 µM | SK-MEL-5 > 100 µM | SK-OV-3 > 100 µM | SN12C > 100 µM | SNB-75 > 100 µM | SR > 100 µM | SW-620 > 100 µM | T47D > 100 µM | TK-10 > 100 µM | U-251 > 100 µM | UACC-257 > 100 µM | UACC-62 > 100 µM | UO-31 > 100 µM
> 100 µM: HCT-15
